Values belong to the compound of their own block, whether it stands above or below them.
Key:
Test in all cases: radiometric filter-binding kinase assay
EPHA4 (human) = EPHA4 (human) (UniProt P54764)
TTK (human) = TTK (human) (UniProt P33981)
ROCK2 (rat) = conditions: accession and sequence are those of the human protein
TBK1 (human) = TBK1 (human) (UniProt Q9UHD2)
MARK2 (human) = MARK2 (human) (UniProt Q7KZI7)
EPHA2 (human) = EPHA2 (human) (UniProt P29317)
RPS6KA3 KD1 KD2 (human) = RPS6KA3 KD1 KD2 (human) (UniProt P51812)
CDK2 CCNA2 (human) = CDK2 CCNA2 (human) (UniProt P20248+P24941)
EPHB3 (human) = EPHB3 (human) (UniProt P54753)
[1] = system: PAK2 (human), Q13177 [T402E]
Sequence of PAK2 (human), Q13177 [T402E] (Q13177 whole entry T402E, looked up): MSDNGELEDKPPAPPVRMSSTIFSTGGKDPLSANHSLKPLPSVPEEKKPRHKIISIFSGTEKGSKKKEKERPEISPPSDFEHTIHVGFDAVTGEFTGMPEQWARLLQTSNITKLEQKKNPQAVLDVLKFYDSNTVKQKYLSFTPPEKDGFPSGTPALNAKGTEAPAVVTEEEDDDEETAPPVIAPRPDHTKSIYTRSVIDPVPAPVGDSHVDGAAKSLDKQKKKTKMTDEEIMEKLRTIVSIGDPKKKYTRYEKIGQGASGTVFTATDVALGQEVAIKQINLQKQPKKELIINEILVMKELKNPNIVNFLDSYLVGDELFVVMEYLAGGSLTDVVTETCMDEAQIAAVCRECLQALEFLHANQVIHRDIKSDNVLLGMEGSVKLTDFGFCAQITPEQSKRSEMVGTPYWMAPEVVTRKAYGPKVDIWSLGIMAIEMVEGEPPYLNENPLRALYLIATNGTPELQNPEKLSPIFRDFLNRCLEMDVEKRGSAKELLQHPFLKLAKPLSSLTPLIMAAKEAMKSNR

PAK6 (human) = PAK6 (human) (UniProt Q9NQU5)
Sequence of PAK6 (human) (Q9NQU5 whole entry, looked up): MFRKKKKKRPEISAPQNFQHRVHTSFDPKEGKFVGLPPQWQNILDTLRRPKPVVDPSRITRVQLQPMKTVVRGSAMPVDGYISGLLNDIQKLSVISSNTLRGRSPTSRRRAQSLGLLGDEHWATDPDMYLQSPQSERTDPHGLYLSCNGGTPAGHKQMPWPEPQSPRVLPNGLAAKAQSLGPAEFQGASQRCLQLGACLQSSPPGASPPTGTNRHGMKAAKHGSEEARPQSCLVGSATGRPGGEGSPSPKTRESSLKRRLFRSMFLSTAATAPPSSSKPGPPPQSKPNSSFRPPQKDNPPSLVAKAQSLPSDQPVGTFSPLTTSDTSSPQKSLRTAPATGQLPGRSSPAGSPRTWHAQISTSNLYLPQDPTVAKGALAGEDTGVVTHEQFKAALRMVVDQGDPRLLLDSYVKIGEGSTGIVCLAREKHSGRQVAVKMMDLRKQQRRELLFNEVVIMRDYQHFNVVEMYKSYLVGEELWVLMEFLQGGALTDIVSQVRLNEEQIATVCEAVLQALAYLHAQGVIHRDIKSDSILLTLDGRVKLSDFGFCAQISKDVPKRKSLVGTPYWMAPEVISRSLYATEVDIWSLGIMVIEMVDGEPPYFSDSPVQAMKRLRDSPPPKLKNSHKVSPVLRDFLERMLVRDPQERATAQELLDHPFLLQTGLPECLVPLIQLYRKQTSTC

MST4 (human) = MST4 (human) (UniProt Q9P289)
Sequence of MST4 (human) (Q9P289 whole entry, looked up): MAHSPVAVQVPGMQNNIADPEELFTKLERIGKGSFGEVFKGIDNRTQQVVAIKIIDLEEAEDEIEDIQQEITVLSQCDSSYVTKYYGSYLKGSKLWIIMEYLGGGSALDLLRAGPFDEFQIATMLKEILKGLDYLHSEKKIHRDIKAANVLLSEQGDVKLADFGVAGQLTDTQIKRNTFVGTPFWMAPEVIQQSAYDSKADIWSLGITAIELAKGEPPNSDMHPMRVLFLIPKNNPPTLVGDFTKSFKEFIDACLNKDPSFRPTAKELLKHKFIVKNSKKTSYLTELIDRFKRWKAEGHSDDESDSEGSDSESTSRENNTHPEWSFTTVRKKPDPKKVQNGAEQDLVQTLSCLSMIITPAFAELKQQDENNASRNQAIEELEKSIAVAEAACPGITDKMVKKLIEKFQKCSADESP

EPHB1 (human) = EPHB1 (human) (UniProt P54762)
MINK1 (human) = MINK1 (human) (UniProt Q8N4C8)
PKN2 (human) = PKN2 (human) (UniProt Q16513)
CSK (human) = CSK (human) (UniProt P41240)
CHEK2 (human) = CHEK2 (human) (UniProt O96017)
MAPK8 (human) = MAPK8 (human) (UniProt P45983)
MAP3K11 (human) = MAP3K11 (human) (UniProt Q16584)
Sequence of MAP3K11 (human) (Q16584 whole entry, looked up): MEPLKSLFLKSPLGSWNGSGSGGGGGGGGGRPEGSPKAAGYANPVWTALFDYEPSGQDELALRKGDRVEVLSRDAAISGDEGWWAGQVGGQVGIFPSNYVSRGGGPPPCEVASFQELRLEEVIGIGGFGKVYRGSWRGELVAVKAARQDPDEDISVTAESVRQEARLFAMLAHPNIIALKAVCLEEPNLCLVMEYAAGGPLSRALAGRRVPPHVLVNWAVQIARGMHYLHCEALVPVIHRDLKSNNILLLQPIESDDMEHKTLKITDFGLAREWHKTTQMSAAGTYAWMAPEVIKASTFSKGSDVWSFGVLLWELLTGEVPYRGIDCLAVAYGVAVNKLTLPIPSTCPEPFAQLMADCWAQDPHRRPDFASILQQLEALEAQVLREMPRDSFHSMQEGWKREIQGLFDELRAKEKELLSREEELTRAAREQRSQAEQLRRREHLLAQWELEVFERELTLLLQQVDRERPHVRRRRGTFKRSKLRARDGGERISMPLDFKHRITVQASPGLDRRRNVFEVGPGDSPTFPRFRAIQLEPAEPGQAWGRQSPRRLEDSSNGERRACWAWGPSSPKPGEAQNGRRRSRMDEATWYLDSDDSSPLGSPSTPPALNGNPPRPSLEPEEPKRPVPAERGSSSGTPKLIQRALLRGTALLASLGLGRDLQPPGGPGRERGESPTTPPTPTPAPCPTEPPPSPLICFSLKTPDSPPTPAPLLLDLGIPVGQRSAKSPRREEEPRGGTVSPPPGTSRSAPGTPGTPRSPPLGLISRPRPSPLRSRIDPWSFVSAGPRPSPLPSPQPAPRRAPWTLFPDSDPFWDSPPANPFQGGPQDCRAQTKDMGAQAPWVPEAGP

NUAK1 (human) = NUAK1 (human) (UniProt O60285)
Sequence of NUAK1 (human) (O60285 whole entry, looked up): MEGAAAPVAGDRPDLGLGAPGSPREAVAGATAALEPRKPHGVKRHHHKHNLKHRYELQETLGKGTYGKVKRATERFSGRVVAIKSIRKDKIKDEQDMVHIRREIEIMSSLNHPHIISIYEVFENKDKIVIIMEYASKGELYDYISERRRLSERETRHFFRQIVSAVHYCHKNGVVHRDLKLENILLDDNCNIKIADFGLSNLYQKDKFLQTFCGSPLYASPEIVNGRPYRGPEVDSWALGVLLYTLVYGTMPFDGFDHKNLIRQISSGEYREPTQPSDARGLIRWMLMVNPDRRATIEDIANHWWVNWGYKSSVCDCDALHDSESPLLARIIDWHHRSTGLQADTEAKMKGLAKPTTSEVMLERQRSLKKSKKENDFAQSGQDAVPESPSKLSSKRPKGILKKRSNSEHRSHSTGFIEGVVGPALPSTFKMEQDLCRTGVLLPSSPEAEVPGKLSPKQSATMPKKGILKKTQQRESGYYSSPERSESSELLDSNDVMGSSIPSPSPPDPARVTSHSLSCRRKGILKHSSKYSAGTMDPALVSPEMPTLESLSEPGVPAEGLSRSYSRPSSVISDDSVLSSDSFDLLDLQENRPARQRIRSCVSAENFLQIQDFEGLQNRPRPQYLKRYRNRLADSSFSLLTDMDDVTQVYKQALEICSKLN

MAPK10 (human) = MAPK10 (human) (UniProt P53779)
CaMK1 (human) = CaMK1 (human) (UniProt Q14012)
GCK (human) = GCK (human) (UniProt Q12851)
MAP3K7 TAB1 (human) = MAP3K7 TAB1 (human) (UniProt Q15750+O43318)
PAK4 (human) = PAK4 (human) (UniProt O96013)
IKBKB (human) = IKBKB (human) (UniProt O14920)
CHEK1 (human) = CHEK1 (human) (UniProt O14757)
AURKB (human) = AURKB (human) (UniProt Q96GD4)
TAOK1 (human) = TAOK1 (human) (UniProt Q7L7X3)
DYRK3 (human) = DYRK3 (human) (UniProt O43781)
SRC (human) = SRC (human) (UniProt P12931)
Sequence of SRC (human) (P12931 whole entry, looked up): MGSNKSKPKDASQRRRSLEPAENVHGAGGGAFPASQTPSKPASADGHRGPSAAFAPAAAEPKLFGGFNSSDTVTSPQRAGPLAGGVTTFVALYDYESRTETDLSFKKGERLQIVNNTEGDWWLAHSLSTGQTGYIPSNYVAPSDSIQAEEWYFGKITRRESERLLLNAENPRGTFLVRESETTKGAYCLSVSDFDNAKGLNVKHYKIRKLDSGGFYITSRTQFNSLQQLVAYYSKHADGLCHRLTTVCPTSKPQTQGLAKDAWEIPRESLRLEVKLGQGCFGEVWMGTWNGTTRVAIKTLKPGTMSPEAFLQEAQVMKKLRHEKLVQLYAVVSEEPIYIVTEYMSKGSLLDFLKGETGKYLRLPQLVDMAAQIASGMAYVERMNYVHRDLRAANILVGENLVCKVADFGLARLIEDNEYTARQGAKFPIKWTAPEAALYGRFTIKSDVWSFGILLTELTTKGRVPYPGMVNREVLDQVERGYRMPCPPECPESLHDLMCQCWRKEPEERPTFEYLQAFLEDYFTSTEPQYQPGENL

MAP2K1 (human) = MAP2K1 (human) (UniProt Q02750)
Sequence of MAP2K1 (human) (Q02750 whole entry, looked up): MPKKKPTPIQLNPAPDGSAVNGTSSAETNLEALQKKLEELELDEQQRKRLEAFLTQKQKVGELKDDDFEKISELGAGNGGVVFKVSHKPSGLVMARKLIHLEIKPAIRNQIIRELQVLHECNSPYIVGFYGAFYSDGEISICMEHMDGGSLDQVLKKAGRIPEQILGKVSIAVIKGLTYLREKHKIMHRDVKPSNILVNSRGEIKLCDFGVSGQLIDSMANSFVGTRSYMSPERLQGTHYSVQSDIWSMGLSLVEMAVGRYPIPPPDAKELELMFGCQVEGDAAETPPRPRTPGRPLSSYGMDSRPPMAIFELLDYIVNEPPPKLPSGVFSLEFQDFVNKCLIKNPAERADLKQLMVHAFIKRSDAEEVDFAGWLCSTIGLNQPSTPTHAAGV

LCK (mouse) = conditions: accession and sequence are those of the human protein
MYLK (human) = MYLK (human) (UniProt Q15746)
EPHB2 (human) = EPHB2 (human) (UniProt P29323)
[2] = system: AKT1 (human), P31749 [S473D]

Sequence of TBK1 (human) (Q9UHD2 whole entry, looked up): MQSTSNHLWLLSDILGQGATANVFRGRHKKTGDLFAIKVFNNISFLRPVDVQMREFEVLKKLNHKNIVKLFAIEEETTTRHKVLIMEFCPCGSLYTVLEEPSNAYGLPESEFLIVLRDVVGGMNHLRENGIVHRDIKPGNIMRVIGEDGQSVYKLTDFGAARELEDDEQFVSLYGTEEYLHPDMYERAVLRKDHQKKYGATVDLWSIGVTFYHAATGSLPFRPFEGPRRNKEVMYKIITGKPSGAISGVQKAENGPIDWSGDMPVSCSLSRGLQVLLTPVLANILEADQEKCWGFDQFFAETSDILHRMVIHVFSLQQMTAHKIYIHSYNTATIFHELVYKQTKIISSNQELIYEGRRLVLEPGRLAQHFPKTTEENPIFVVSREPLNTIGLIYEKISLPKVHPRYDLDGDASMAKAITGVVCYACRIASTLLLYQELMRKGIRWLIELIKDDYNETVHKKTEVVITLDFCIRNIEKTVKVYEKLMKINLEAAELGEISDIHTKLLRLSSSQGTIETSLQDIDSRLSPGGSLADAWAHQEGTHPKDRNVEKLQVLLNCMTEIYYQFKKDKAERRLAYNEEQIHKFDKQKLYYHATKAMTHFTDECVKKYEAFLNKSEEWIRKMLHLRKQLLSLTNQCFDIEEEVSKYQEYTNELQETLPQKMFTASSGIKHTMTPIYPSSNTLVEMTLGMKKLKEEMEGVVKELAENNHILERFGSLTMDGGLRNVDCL

- residual activity (EPHA4 (human); compound 1.0 µM): 103%
- residual activity (EPHA4 (human); compound 10.0 µM): 112%
- residual activity (TTK (human); compound 1.0 µM): 79%
- residual activity (TTK (human); compound 10.0 µM): 51%
- residual activity (ROCK2 (rat); compound 1.0 µM): 73%
- residual activity (ROCK2 (rat); compound 10.0 µM): 38%
- residual activity (TBK1 (human); compound 1.0 µM): 87%
- residual activity (TBK1 (human); compound 10.0 µM): 63%
- residual activity (MARK2 (human); compound 1.0 µM): 80%
- residual activity (MARK2 (human); compound 10.0 µM): 83%
- residual activity (EPHA2 (human); compound 1.0 µM): 94%
- residual activity (EPHA2 (human); compound 10.0 µM): 89%
- residual activity (RPS6KA3 KD1 KD2 (human); compound 1.0 µM): 77%
- residual activity (RPS6KA3 KD1 KD2 (human); compound 10.0 µM): 44%
- residual activity (CDK2 CCNA2 (human); compound 1.0 µM): 91%
- residual activity (CDK2 CCNA2 (human); compound 10.0 µM): 105%
- residual activity (EPHB3 (human); compound 1.0 µM): 93%
- residual activity (EPHB3 (human); compound 10.0 µM): 96%
- residual activity ([1]; compound 1.0 µM): 93%
- residual activity ([1]; compound 10.0 µM): 90%
- residual activity (PAK6 (human); compound 1.0 µM): 89%
- residual activity (PAK6 (human); compound 10.0 µM): 87%
- residual activity (MST4 (human); compound 1.0 µM): 93%
- residual activity (MST4 (human); compound 10.0 µM): 61%
- residual activity (EPHB1 (human); compound 1.0 µM): 95%
- residual activity (EPHB1 (human); compound 10.0 µM): 107%
- residual activity (MINK1 (human); compound 1.0 µM): 84%
- residual activity (MINK1 (human); compound 10.0 µM): 21%
- residual activity (PKN2 (human); compound 1.0 µM): 80%
- residual activity (PKN2 (human); compound 10.0 µM): 53%
- residual activity (CSK (human); compound 1.0 µM): 86%
- residual activity (CSK (human); compound 10.0 µM): 100%
- residual activity (CHEK2 (human); compound 1.0 µM): 97%
- residual activity (CHEK2 (human); compound 10.0 µM): 59%
- residual activity (MAPK8 (human); compound 1.0 µM): 93%
- residual activity (MAPK8 (human); compound 10.0 µM): 77%
- residual activity (MAP3K11 (human); compound 1.0 µM): 81%
- residual activity (MAP3K11 (human); compound 10.0 µM): 25%
- residual activity (NUAK1 (human); compound 1.0 µM): 92%
- residual activity (NUAK1 (human); compound 10.0 µM): 78%
- residual activity (MAPK10 (human); compound 1.0 µM): 105%
- residual activity (MAPK10 (human); compound 10.0 µM): 72%
- residual activity (CaMK1 (human); compound 1.0 µM): 105%
- residual activity (CaMK1 (human); compound 10.0 µM): 85%
- residual activity (GCK (human); compound 1.0 µM): 78%
- residual activity (GCK (human); compound 10.0 µM): 13%
- residual activity (MAP3K7 TAB1 (human); compound 1.0 µM): 82%
- residual activity (MAP3K7 TAB1 (human); compound 10.0 µM): 75%
- residual activity (PAK4 (human); compound 1.0 µM): 89%
- residual activity (PAK4 (human); compound 10.0 µM): 54%
- residual activity (IKBKB (human); compound 1.0 µM): 94%
- residual activity (IKBKB (human); compound 10.0 µM): 64%
- residual activity (CHEK1 (human); compound 1.0 µM): 79%
- residual activity (CHEK1 (human); compound 10.0 µM): 87%
- residual activity (AURKB (human); compound 1.0 µM): 84%
- residual activity (AURKB (human); compound 10.0 µM): 58%
- residual activity (TAOK1 (human); compound 1.0 µM): 82%
- residual activity (TAOK1 (human); compound 10.0 µM): 36%
- residual activity (DYRK3 (human); compound 1.0 µM): 15%
- residual activity (DYRK3 (human); compound 10.0 µM): 6%
- residual activity (SRC (human); compound 1.0 µM): 85%
- residual activity (SRC (human); compound 10.0 µM): 92%
- residual activity (MAP2K1 (human); compound 1.0 µM): 85%
- residual activity (MAP2K1 (human); compound 10.0 µM): 78%
- residual activity (LCK (mouse); compound 1.0 µM): 113%
- residual activity (LCK (mouse); compound 10.0 µM): 99%
- residual activity (MYLK (human); compound 1.0 µM): 86%
- residual activity (MYLK (human); compound 10.0 µM): 35%
- residual activity (EPHB2 (human); compound 1.0 µM): 106%
- residual activity (EPHB2 (human); compound 10.0 µM): 99%
- residual activity ([2]; compound 1.0 µM): 96%
- residual activity ([2]; compound 10.0 µM): 78%
Compound: NC(=O)c1ccc(-c2ccc(Oc3cncc4sc(-c5nn[nH]n5)cc34)cc2)cc1

- residual activity (EPHA4 (human); compound 100.0 µM): 92%
- residual activity (TTK (human); compound 100.0 µM): 90%
- residual activity (ROCK2 (rat); compound 100.0 µM): 105%
- residual activity (TBK1 (human); compound 100.0 µM): 94%
- residual activity (MARK2 (human); compound 100.0 µM): 98%
- residual activity (EPHA2 (human); compound 100.0 µM): 89%
- residual activity (RPS6KA3 KD1 KD2 (human); compound 100.0 µM): 80%
- residual activity (CDK2 CCNA2 (human); compound 100.0 µM): 94%
- residual activity (EPHB3 (human); compound 100.0 µM): 48%
- residual activity ([1]; compound 100.0 µM): 100%
- residual activity (PAK6 (human); compound 100.0 µM): 96%
- residual activity (MST4 (human); compound 100.0 µM): 67%
- residual activity (EPHB1 (human); compound 100.0 µM): 97%
- residual activity (MINK1 (human); compound 100.0 µM): 62%
- residual activity (PKN2 (human); compound 100.0 µM): 126%
- residual activity (CSK (human); compound 100.0 µM): 132%
- residual activity (CHEK2 (human); compound 100.0 µM): 100%
- residual activity (MAPK8 (human); compound 100.0 µM): 113%
- residual activity (MAP3K11 (human); compound 100.0 µM): 83%
- residual activity (NUAK1 (human); compound 100.0 µM): 44%
- residual activity (MAPK10 (human); compound 100.0 µM): 100%
- residual activity (CaMK1 (human); compound 100.0 µM): 45%
- residual activity (GCK (human); compound 100.0 µM): 80%
- residual activity (MAP3K7 TAB1 (human); compound 100.0 µM): 31%
- residual activity (PAK4 (human); compound 100.0 µM): 70%
- residual activity (IKBKB (human); compound 100.0 µM): 97%
- residual activity (CHEK1 (human); compound 100.0 µM): 196%
- residual activity (AURKB (human); compound 100.0 µM): 93%
- residual activity (TAOK1 (human); compound 100.0 µM): 109%
- residual activity (DYRK3 (human); compound 100.0 µM): 65%
- residual activity (SRC (human); compound 100.0 µM): 40%
- residual activity (MAP2K1 (human); compound 100.0 µM): 103%
- residual activity (LCK (mouse); compound 100.0 µM): 112%
- residual activity (MYLK (human); compound 100.0 µM): 97%
- residual activity (EPHB2 (human); compound 100.0 µM): 96%
- residual activity ([2]; compound 100.0 µM): 108%
Compound: Cc1cc(N=Nc2cc(S(=O)(=O)O)c(C)cc2C)c(N)cc1O

Source: the kinase profiling compilation of Christmann-Franck et al. (2016)
